What was measured:
[1] = Pharmacokinetic profile of a single oral dose of 800 mg PDS in subjects with varying degrees of renal impairment vs healthy volunteers; assay type: in vivo; conditions: human, plasma, single oral 800 mg; for AUC(0-inf): mean, only subjects with estimable elimination rate constant; for AUC(0-t): read-out: AUC0-Tlast
Procedure: An open-label, non-randomized, parallel group study to assess the pharmacokinetic profile of a single oral dose of 800 mg 1,3-propanedisulfonic acid disodium salt (PDS) in subjects with varying degrees of renal impairment as compared to healthy volunteers is conducted. Blood and urine samples are collected for 24 hours following dosing. Plasma and urine concentrations in 1,3-propanedisulfonic acid are determined using validated HPLC methods. […] Consequently, a decrease in dose appears to be necessary to maintain an acceptable systemic exposure in patients with impaired renal function.

[2] = Pharmacokinetics of single and repeated oral doses of PDS in healthy male subjects; assay type: in vivo, human; conditions: for AUC(0-t) / Cmax / Tmax: male, po, n = 6; for AUC(0-t) / Cmax: mean; for Tmax: median
From the text: In the following examples, terms are as defined below. The pharmacokinetic parameters were derived by non-compartmental analysis using WinNonlin® (Pharsight Corp., Mountain View, Calif., USA). • Cmax—the maximum observed plasma concentration. • Tmax—the time of occurrence of Cmax. • AUC0-t—the area under the plasma concentration versus time curve from time zero to the last sampling time at which concentrations were at or above the limit of quantification, calculated by the linear trapezoidal rule. • AUC∞—the area under the plasma concentrations versus time curve from time zero to infinity, calculated from AUC0-t+(Clast/λz), where Clast is the last observed quantifiable concentration and λz is the apparent terminal rate constant. • t1/2 the apparent terminal half-life, calculated from ln 2/λz
The safety, tolerability and pharmacokinetics of PDS following multiple rising oral doses in healthy male adult volunteers is determined. This is a randomized, double-blind, placebo-controlled study to assess the pharmacokinetic profile of single and repeated oral doses of PDS at 400, 800 and 1600 mg in healthy male subjects. PDS is administered as a single oral dose to healthy male subjects at 400, 800 and 1600 mg on Days 1 and 7. Following the single oral administration on Day 1, PDS is administered on Days 2, 3, 4, 5 and 6 at 400, 800 and 1600 mg four times daily, or 1600 mg three times daily. Blood samples are collected through 24 hours after the dose on Day 1, before the first and last doses on Days 2 through 6, and after 48 hours after the final dose on Day 7. Plasma concentrations of PDS are determined using validated HPLC methods. Following single and repeated oral doses of PDS maximum plasma concentrations are generally reached within 0.25 to 1 hour post-dose. The mean half-life (T1/2) ranges from 5 to 20 hours after single or multiple dosing. Accumulation after multiple dosing is consistent with the T1/2 and dosing frequency.

[3] = Healthy, GFR >80 mL/min, n = 6, mean
[4] = Mild renal impairment, GFR 50-80 mL/min, n = 6, mean
[5] = Moderate renal impairment, GFR 30-50 mL/min, n = 4, mean
[6] = Severe renal impairment, GFR <30 mL/min, n = 6, mean
[7] = human, plasma, 400 mg, 400 mg q.i.d. group, Day 1 (single oral administration)
[8] = human, plasma, 400 mg, 400 mg q.i.d., Day 7 (repeated oral administration)
[9] = human, plasma, 800 mg, 800 mg q.i.d. group, Day 1 (single oral administration)
[10] = human, plasma, 800 mg, 800 mg q.i.d., Day 7 (repeated oral administration)
[11] = human, plasma, 1600 mg, 1600 mg q.i.d group, Day 1 (single oral administration)
[12] = human, plasma, 1600 mg, 1600 mg q.i.d, Day 7 (repeated oral administration)
[13] = human, plasma, 1600 mg, 1600 mg t.i.d. group, Day 1 (single oral administration)
[14] = human, plasma, 1600 mg, 1600 mg t.i.d., Day 7 (repeated oral administration)

O=S(=O)([O-])CCCS(=O)(=O)[O-].[Na+].[Na+] [PDS, 1,3-propanedisulfonic acid, disodium salt]
AUC(0-inf) ([1]; Healthy, GFR >80 mL/min): 5370 ng·h/mL | Cmax [1, 3]: 1240 ng/mL | AUC(0-t) [1, 3]: 3160 ng·h/mL | Tmax ([1]; Healthy, GFR >80 mL/min, n = 6, median): 30 min | AUC(0-inf) ([1]; Mild renal impairment, GFR 50-80 mL/min): 13000 ng·h/mL | Cmax [1, 4]: 3060 ng/mL | AUC(0-t) [1, 4]: 9110 ng·h/mL | Tmax ([1]; Mild renal impairment, GFR 50-80 mL/min, n = 6, median): 30 min | AUC(0-inf) ([1]; Moderate renal impairment, GFR 30-50 mL/min): 10700 ng·h/mL | Cmax [1, 5]: 2100 ng/mL | AUC(0-t) [1, 5]: 9450 ng·h/mL | Tmax ([1]; Moderate renal impairment, GFR 30-50 mL/min, n = 4, median): 30 min | AUC(0-inf) ([1]; Severe renal impairment, GFR <30 mL/min): 43100 ng·h/mL | Cmax [1, 6]: 2210 ng/mL | AUC(0-t) [1, 6]: 29200 ng·h/mL | Tmax ([1]; Severe renal impairment, GFR <30 mL/min, n = 6, median): 150 min | half-life ([2]; human, plasma, oral, after single or multiple dosing, 400, 800, 1600 mg, healthy male subjects, range of means, read-out: mean half-life (T1/2)): 300 to 1200 min | AUC(0-t) [2, 7]: 1590 ng·h/mL | Cmax [2, 7]: 496 ng/mL | Tmax [2, 7]: 60 min | AUC(0-t) [2, 8]: 10500 ng·h/mL | Cmax [2, 8]: 995 ng/mL | Tmax [2, 8]: 15 min | AUC(0-t) [2, 9]: 5180 ng·h/mL | Cmax [2, 9]: 2680 ng/mL | Tmax [2, 9]: 15 min | AUC(0-t) [2, 10]: 19900 ng·h/mL | Cmax [2, 10]: 1680 ng/mL | Tmax [2, 10]: 15 min | AUC(0-t) [2, 11]: 8300 ng·h/mL | Cmax [2, 11]: 2800 ng/mL | Tmax [2, 11]: 30 min | AUC(0-t) [2, 12]: 24500 ng·h/mL | Cmax [2, 12]: 5480 ng/mL | Tmax [2, 12]: 15 min | AUC(0-t) [2, 13]: 7090 ng·h/mL | Cmax [2, 13]: 2890 ng/mL | Tmax [2, 13]: 22.5 min | AUC(0-t) [2, 14]: 25800 ng·h/mL | Cmax [2, 14]: 4890 ng/mL | Tmax [2, 14]: 30 min | dose dependence of systemic exposure (AUC0-t and Cmax) ([2]; single and repeated oral doses 400, 800, 1600 mg, healthy male subjects): approximately proportional to the administered dose

Source: patent publication US20130296434A1, “FORMULATIONS AND METHODS FOR TREATING AMYLOIDOSIS” (Kiacta Sarl, priority 2005, published 2013)
